Literature values in US4535081A, “Antiallergic and antiulcer 1-oxo-1H-thiazolo[3,2-a]pyrimidine-2-carboxamides and intermediates therefor” (Pfizer Inc., priority 1983, dated 1985).

Assays:
gastric ulcers = conditions: literature; cited from earlier work
gastric acid secretion = conditions: literature; cited from earlier work

Row | Compound | effect on gastric ulcers (gastric ulcers) | effect on ulcers / gastric acid secretion (gastric acid secretion)
1 | CC1(C)[C@@H](OC(=O)CCC(=O)O)CC[C@]2(C)[C@H]3C(=O)C=C4[C@@H]5C[C@@](C)(C(=O)O)CC[C@]5(C)CC[C@@]4(C)[C@]3(C)CC[C@@H]12 [carbenoxolone sodium] | prevent formation of and to accelerate healing of gastric ulcers in animals, including humans | –
2 | CN/C(=N/CCSCc1nc[nH]c1C)NC#N [cimetidine] | – | alleviates ulcers by reducing gastric acid secretion
